Laboratory results published in publication PMC5668434, “Modulation of telomere protection by the PI3K/AKT pathway” (Nature Communications, 2017).

Tests used:
CHA-9.3 cell line = test: Cytotoxicity in CHA-9.3 cells; assay type: cell-based, mouse; conditions: 10 μM
PI3Kα = conditions: reported in literature; cited from earlier work
PI3Kβ = conditions: reported in literature; cited from earlier work
PI3Kδ = conditions: reported in literature; cited from earlier work
PI3Kγ = conditions: reported in literature; cited from earlier work
mTOR 1 = conditions: reported in literature; cited from earlier work
mTOR 2 = conditions: reported in literature; cited from earlier work
PI3K (p110α) = biological target: T1, PI3K (p110α) (Homo sapiens, UniProt P42336); test: PI3K alpha biochemical assay (ADP Hunter Plus); conditions: internal data; read-out: PI3Kα IC50
T1 construct: purchased Cama Biosciences (sic; Carna Biosciences) #07CBS-0402A

mTOR (FRAP1) = biological target: T2, mTOR (FRAP1) (Homo sapiens, UniProt P42345); test: mTOR biochemical assay (LanthaScreen); conditions: internal data
T2 construct: purchased ThermoFisher PV4753

[1] = system: p-AKT S473 in CHA-9.3 mouse lung cancer cell line; test: Western blot of AKT phosphorylation at Ser473 in CHA-9.3 cells; assay type: cell-based; conditions: 10 μM (GSK-2126458 1.0 μM), 24 h
Experimental: These new chemical probes were prepared by replacement of a single key oxygen atom from the morpholine moiety by a methylene group, generating the piperidine derivatives ETP-51259 and ETP-50952 (Fig. 1a). To assess their PI3K cellular activity, we measured phosphorylation of residue Ser473 in AKT (p-AKT S473), a PI3K downstream target[61]–[63], by western blot analysis. To this end, we used the CHA-9.3 mouse lung cancer cell line previously generated by us[39]. […] Of note, the inhibitory activity of ETP-47037 was more prolonged than that of ETP-47228. Thus, ETP-47037 mediated p-AKT S473 inhibition was maintained during the 24-hour treatment while the ETP-47228 mediated inhibition decreased 35% after 24 h as compared to 1-h treatment but still was able to inhibit the pathway above 50% (Fig. 1c).
For detection of AKT, PRAS40 (T246) and pS6 in CHA9.3 cells, untreated control (DMSO) or treated with the indicated inhibitors, were lysed in RIPA buffer supplemented with 100 mM pefablock (Roche Diagnostics) and protease inhibitor cocktail (Roche Molecular Biochemicals). Proteins were resolved on 10% SDS-PAGE, and transferred to nitrocellulose membrane (Amersham^TM Protan^TM 0.2 µm nNC). Membranes were incubated with antibodies against phospho-AKT (Ser473), AKT, phospo-S6 (Ser 235/236), and S6Ribosomal from Cell Signaling, phospo-PRAS40 (Thr246) from BIOSURCE and anti α-tubulin form Sigma, overnight at 4 °C. After washing, blots were incubated with secondary antibody: Alexa Fluor 680 goat anti-rabbit IgG (Invitrogen) or anti-mouse IgG DyLight 800 conjugated (Thermo Scientific), and visualized using an Odyssey infrared imaging system (Li-Cor Biosciences).

[2] = system: TRF1 foci in CHA-9.3 mouse lung tumor cell line; test: TRF1 foci immunofluorescence in CHA-9.3 cells; assay type: cell-based
Experimental: (§1) TRF1 immunofluorescence of TRF1 was performed in lung tumor-derived cell line (CHA9.3) and in MEFs[39]. A rat monoclonal antibody against mouse TRF1 developed by the Monoclonal antibody unit at CNIO was used to detect endogenous TRF1 (1:500). GFP-TRF1 fluorescence was directly measured in cells fixed in paraformaldehyde. For quantification of TRF1 foci intensity, pictures of fixed cells were automatically acquired from each well by the Opera HCS system (Perkin Elmer). Sixty images of random fields per well, with a 40× magnification lens, were taken under non-saturating conditions. At least 1 × 10^3 cells were analyzed for each well. Briefly, images were segmented using the DAPI staining to generate masks matching cell nuclei from which-TRF1 foci were analyzed.

[3] = system: TRF1 foci in p53−/− mouse embryo fibroblasts (MEF); test: TRF1 foci immunofluorescence in p53−/− MEFs; assay type: cell-based; conditions: 10 μM, 24 h
Experimental: We then checked whether PI3Kα/AKT inhibition also leads to decreased TRF1 foci in an additional cell type to CHA-9.3 cells. Thus, we used p53 ^−/− mouse embryo fibroblasts (MEF). We treated these MEFs either with the AKT inhibitor MK-2206 or with ETP-47037 at 10 μM concentration for 24 h and analyzed TRF1 foci by immunofluorescence.
as §1

CHA 9-3 cells = test: Multitelomeric signals (MTS) by Q-FISH on metaphase spreads; assay type: cell-based, mouse; conditions: 10 μM, 24 h
Source text: Trf1 abrogation is known to lead to a persistent DDR at telomeres, and to induction of telomere-induced chromosomal aberrations[28]–[30]. Trf1 genetic deletion induces the so-called multitelomeric signals (MTS), a chromosomal aberration related to increased telomere fragility during DNA replication, [29]. […] To this end, we treated CHA 9-3 cells with either DMSO, the AKT inhibitor MK-2206 (AKTi) and the PI3K inhibitors ETP-47037 or ETP-47228. For detection of MTS, we performed quantitative fluorescence in situ hybridization (Q-FISH) analysis on metaphase spreads using a telomeric probe to visualize telomeres (“Methods” section). MTS are visualized by presenting a multi-dot pattern at chromosome ends in contrast to normal telomeres that show a single dot at each chromosome end.
Lung cancer-derived cell line (CHA-9-3) and immortalized P110α ^lox/lox MEFS were treated either with 10 µM of ETP-47037, ETP-47228, or AKTi (MK-2206) for 24 h. Q-FISH in metaphase spreads was performed as described above, but increasing the concentration of formamide in both the incubation and the washes to 70%.

[4] = system: TRF1 mRNA in CHA 9-3 lung cancer cells; test: TRF1 mRNA by qPCR; assay type: cell-based, mouse; conditions: 10 μM, 24 h
[5] = system: TRF1 protein in CHA 9-3 nuclear extracts; test: Western blot of nuclear TRF1 in CHA 9-3 cells; assay type: cell-based, mouse; conditions: 10 μM
Experimental: (§2) Blots were incubated with the primary antibodies anti-TRF1 1:500 (home-made monoclonal Rat, CNIO; TRF-78, ABCAM, ab10579) and with anti-SMC1 1:2000 (Bethyl Laboratories #A300-055A) as loading control. For nuclear protein preparation, the Nuclear/Cytosol Fractionation Kit (K266-100, BioVision) was used according to the manufactures protocol.

[6] = system: TRF1 protein in p53−/− MEFs nuclear extracts; test: Western blot of nuclear TRF1 in p53−/− MEFs; assay type: cell-based, mouse; conditions: 10 μM
Experimental: as §2

human AKT1 = biological target: T3, human AKT1 (Homo sapiens, UniProt P31749); test: In vitro TRF1 phosphorylation by AKT1; assay type: biochemical; conditions: MK-2206 25 μM
T3 construct: purchased ProQinase 1379-0000-2
Experimental: To address whether TRF1 is a direct substrate of AKT, affinity purified GST-TRF1 was incubated with purified human AKT1 (1379-0000-2, ProQinase) in the presence of γ-^32ATP. As positive control, a GSK3 (14-27) peptide (0349-0000-5, prokinase) was also used as substrate. AKT1 yielded a TRF1 phosphorylation signal after incubation with purified GST-TRF1 during 1 h, which was decreased in the presence of AKT inhibitor (see asterisk in Fig. 5a, left). AKT1 also yielded a phosphorylation signal in the positive control peptide GSK3 (14-27) that was reduced in the presence of AKT inhibitor (Fig. 5a, right). An autophospholyration activity of AKT1 was detected after 1 h of incubation and this activity was reduced in the presence of AKT inhibitor (Fig. 5a). Together, these findings indicate that TRF1 is a direct substrate of AKT1.
One μg of purified GST-TRF1 was incubated with 0.2 μg of human GST-AKT1 (1379-0000-2, ProQinase) with or without AKT inhibitor (MK-2206, 25 μM) in kinase buffer (50 mM Hepes pH 7.9, 100 μM ATP, 10 mM MgCl2, 5 mM DTT) containing 5 μCi [γ-^32-P]ATP in a total volume of 25 μl. The peptide RBER-GSK3(14-27) (0349-0000-5, ProQinase) (100 ng) was used as positive control. The reactions were performed at 30 °C for […] and stopped by addition of Lamely buffer (6×). Samples were resolved in 4–12% SDS-PAGE gels and subjected to autoradiography.

Akt1 = system: Akt1; design: method as in earlier work; conditions: reported in literature; read-out: Reported data IC50 Akt 1; cited from earlier work
Akt2 = system: Akt2; design: method as in earlier work; conditions: reported in literature; read-out: Reported data IC50 Akt 2; cited from earlier work
Akt3 = system: Akt3; design: method as in earlier work; conditions: reported in literature; read-out: Reported data IC50 Akt 3; cited from earlier work

T3 sequence (P31749 whole entry): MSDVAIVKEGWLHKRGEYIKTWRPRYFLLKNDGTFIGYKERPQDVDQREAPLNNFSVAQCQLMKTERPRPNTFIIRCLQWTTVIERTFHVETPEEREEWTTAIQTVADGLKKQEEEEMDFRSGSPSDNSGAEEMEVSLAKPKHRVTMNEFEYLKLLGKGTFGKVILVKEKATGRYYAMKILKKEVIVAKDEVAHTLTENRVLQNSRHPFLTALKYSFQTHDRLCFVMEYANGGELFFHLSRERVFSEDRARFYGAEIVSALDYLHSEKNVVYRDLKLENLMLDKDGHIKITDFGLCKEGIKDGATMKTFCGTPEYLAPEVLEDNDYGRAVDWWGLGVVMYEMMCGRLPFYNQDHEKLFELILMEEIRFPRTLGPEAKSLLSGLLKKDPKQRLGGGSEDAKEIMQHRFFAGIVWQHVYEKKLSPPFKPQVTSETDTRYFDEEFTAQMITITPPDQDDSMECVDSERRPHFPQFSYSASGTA
T2 sequence (P42345 1360-2549 limits assumed): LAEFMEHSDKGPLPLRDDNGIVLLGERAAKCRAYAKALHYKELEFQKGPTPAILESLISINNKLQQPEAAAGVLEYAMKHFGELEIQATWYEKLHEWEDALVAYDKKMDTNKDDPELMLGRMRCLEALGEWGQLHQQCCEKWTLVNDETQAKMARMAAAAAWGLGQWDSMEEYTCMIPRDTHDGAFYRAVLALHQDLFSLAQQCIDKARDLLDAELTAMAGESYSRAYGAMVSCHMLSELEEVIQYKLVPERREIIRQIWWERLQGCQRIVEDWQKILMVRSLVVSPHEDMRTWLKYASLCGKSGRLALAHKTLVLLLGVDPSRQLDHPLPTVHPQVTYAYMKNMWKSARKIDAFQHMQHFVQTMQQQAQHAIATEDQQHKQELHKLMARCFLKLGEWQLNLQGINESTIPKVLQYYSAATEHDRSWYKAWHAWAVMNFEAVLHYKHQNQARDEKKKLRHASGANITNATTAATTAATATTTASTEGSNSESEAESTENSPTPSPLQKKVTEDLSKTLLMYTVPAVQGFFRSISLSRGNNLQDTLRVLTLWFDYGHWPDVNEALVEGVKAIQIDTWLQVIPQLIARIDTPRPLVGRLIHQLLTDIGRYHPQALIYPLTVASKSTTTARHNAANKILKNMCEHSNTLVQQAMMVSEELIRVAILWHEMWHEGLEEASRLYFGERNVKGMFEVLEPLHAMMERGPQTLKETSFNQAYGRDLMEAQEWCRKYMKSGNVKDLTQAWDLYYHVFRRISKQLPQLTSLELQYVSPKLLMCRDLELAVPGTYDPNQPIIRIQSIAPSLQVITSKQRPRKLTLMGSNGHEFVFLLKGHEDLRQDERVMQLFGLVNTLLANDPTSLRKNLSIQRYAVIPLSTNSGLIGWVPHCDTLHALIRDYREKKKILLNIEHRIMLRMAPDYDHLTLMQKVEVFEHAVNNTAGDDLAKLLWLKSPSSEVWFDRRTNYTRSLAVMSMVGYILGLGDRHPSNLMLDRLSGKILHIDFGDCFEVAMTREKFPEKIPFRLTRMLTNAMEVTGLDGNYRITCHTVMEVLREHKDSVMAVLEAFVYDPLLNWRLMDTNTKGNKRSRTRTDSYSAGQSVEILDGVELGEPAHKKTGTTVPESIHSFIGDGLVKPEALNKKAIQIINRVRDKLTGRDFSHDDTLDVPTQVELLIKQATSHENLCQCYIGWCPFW
T1 sequence (P42336 whole entry): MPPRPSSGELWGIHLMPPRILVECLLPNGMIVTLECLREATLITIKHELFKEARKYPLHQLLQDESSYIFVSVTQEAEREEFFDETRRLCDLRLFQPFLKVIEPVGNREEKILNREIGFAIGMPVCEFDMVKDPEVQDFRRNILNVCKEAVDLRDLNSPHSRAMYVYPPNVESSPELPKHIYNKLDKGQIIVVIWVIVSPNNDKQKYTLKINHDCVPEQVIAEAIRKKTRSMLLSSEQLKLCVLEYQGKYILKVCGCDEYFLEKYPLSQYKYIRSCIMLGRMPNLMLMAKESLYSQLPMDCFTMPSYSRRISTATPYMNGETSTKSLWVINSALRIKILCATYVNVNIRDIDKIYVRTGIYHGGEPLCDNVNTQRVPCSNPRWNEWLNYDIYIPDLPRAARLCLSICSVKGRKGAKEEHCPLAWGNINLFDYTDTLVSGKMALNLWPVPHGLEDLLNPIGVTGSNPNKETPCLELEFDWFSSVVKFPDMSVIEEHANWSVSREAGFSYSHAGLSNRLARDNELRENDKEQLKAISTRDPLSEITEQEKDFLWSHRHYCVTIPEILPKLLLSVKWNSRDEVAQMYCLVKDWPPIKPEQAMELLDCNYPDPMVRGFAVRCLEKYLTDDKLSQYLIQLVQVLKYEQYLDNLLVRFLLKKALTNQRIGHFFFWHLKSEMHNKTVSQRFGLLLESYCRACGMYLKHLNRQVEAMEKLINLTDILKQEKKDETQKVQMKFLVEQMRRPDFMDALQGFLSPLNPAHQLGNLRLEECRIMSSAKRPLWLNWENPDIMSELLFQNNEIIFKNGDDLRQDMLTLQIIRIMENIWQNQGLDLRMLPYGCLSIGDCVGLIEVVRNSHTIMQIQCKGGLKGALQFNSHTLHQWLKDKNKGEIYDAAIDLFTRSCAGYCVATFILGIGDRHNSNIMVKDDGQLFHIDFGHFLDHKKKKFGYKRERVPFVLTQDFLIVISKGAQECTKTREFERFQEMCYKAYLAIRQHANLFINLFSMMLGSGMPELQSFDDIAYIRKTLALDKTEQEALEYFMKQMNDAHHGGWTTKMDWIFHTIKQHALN
T1 sequence (P27986 whole entry partner): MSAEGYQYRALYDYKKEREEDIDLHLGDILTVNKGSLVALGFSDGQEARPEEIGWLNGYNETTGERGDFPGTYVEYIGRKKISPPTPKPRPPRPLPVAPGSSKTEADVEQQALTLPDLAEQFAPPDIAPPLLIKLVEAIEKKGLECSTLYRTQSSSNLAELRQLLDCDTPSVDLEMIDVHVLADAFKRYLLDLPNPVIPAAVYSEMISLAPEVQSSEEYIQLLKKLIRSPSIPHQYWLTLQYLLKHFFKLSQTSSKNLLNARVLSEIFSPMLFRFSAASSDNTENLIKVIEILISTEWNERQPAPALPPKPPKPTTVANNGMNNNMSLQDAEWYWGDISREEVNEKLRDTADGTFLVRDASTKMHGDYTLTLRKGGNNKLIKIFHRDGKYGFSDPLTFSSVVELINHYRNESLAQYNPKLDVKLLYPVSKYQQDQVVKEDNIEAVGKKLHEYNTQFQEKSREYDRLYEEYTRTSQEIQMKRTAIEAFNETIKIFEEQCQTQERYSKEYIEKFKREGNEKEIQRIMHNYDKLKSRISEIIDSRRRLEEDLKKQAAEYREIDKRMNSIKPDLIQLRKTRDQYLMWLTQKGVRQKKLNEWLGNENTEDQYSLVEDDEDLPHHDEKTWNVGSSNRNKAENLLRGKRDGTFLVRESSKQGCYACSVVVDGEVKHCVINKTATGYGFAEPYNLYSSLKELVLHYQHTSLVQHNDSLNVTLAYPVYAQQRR

In the case of `COc1ncc(-c2ccc3nccc(-c4ccnnc4)c3c2)cc1NS(=O)(=O)c1ccc(F)cc1F` [GSK-2126458], the Cytotoxicity (CHA-9.3 cell line) is listed as “high cytotoxicity”, the IC50 (PI3Kα) is listed as […] and the IC50 (PI3Kβ) is listed as […]. The IC50 (PI3Kδ) was […], the IC50 (PI3Kγ) was […] and the IC50 (mTOR 1) was 0.18 nM. The IC50 (mTOR 2) was 0.3 nM.
In the case of `NC1(c2ccc(-c3nc4ccn5c(=O)[nH]nc5c4cc3-c3ccccc3)cc2)CCC1` [MK-2206, reference compound], the IC50 (PI3K (p110α)) is reported as 34.3 nM, the IC50 (mTOR (FRAP1)) is reported as > 10000 nM and the “Phosphorylation of AKT (p-AKT S473) (in words)” value [1] is reported as “strong inhibition”. For the same compound, the “Inhibition of TRF1 foci (in words)” value ([2]; 10 μM (GSK-2126458 1.0 μM), 24 h, CHA-9.3) was “effectively inhibited TRF1 foci”, the “TRF1 levels as compared to bortezomib/DMSO-treated control cells” value ([2]; 10 μM plus bortezomib 50 nM, CHA 9-3) was “significantly lower” and the “Reduction in TRF1 foci intensity” value [3] was 22%. The “Frequency of MTS events per metaphase compared to DMSO” value (CHA 9-3 cells) was “significantly increased”, the “TRF1 mRNA levels” value [4] was “None of the inhibitors significantly affected” and the “TRF1 protein levels in nuclear extracts” value [5] was “significantly decreased”. For the same compound, the “Total nuclear TRF1 levels compared to DMSO” value [6] was “decreased”, the “Autophosphorylation activity of AKT1” value (human AKT1; 1 h) was “reduced” and the “Phosphorylation signal of control peptide GSK3 (14-27) by AKT1” value (human AKT1) was “reduced”. For the same compound, the “TRF1 phosphorylation signal by AKT1” value (human AKT1; purified GST-TRF1, 1 h) was “decreased”, the IC50 (Akt1) was 8 nM and the IC50 (Akt2) was 12 nM. For the same compound, the IC50 (Akt3) was 65 nM.
